Legend:
[1] = PAMPA membrane permeability; format: in vitro ADME
Description: Pharmacokinetic data were obtained for compound 1o at the Sanford-Burnham Medical Research Institute according to established procedures. Compound solubility in an aqueous solution was measured using an automated kinetic solubility method. The concentration of the compound in a saturated pH-buffered aqueous solution was determined via UV absorbance (250–498 nm) and compared with the spectra of a precipitation-free reference solution. The plasma stability of the compound was determined at a single concentration using species-specific plasma. The percentage of parent compound remaining after 3 h was determined via LC-MS/MS. The percentage of compound 1o bound to plasma proteins was determined through rapid equilibrium dialysis and quantified via LC-MS/MS. Metabolic stability of the compound was determined at a single concentration using species-specific liver microsomes that contained cytochrome P450s, flavin-monooxygenases, carboxyl-esterases, epoxide hydrolases, and other drug-metabolizing enzymes. The quantification was carried out via LC-MS/MS. Membrane permeability of compound 1o was measured using an in vitro model for the passive transport from the gastrointestinal tract into the blood system. A double-sink parallel artificial membrane permeability assay PAMPA, in a 96-well format was employed.

[2] = target: T1, recombinant protein hGrx1-roGFP2 (Homo sapiens, UniProt P35754); test: in vitro interaction with recombinant redox probe; format: biochemical; conditions: 10 nM to 100 µM, 4 h and 24 h
T1 construct: made in house
Description: (2) Chromogenic precipitating substrates following a poly-condensation (so called “polymerization”) pathway, which is tuneable by utilizing metal catalytic effects via introduction of metal chelating groups.32-33 […]
Heterologous overexpression of hGrx1-roGFP2 and in vitro measurements with the recombinant protein were carried out as described45 with minor modifications. […] The emission of hGrx1-roGFP2 (510 nm) after excitation at 405 nm and 475 nm was measured in a plate reader (Clariostar, BMG Labtech) with optimal read settings. The ratio of the fluorescence […]
signals at 405/475 nm were calculated and plotted against time and/or concentration of compound 1o or redox active compounds. […]
100 µM for 4 h and 24 h incubations. Transfection of the Pf3D7 strain with the redox sensor was carried out, and the parasites were cultured as described under constant drug pressure with 5 nM WR99210 (Jacobus Pharmaceuticals, New Jersey, USA).45,46 P. falciparum trophozoites were enriched via magnet separation.47 Parasitemia was counted by using Giemsa-stained blood smears. […] (6-8% parasitemia) were magnetically enriched (Miltenyi Biotec, Germany), counted by using the improved Neubauer hemocytometer (Brand GmbH, Germany), and returned to cell culture (at 0.5 x 10^6 trophozoites/µl) for at least 1 h to recover. […]

For `COc1ccc2c(c1)CCC1C2CC[C@@]2(C)C1CC[C@H]2NCc1cc2ccccc2cc1O` (some centres unmarked) [1o], the “PAMPA Pe” value ([1]; Donor pH 5.0, Acceptor pH 7.4) was 0 ×10⁻⁶ cm/s, the “PAMPA Pe” value ([1]; Donor pH 6.2, Acceptor pH 7.4) was 0 ×10⁻⁶ cm/s and the “PAMPA Pe” value ([1]; Donor pH 7.4, Acceptor pH 7.4) was 0 ×10⁻⁶ cm/s. The “PAMPA permeability in words” value ([1]; all 3 pH levels, compound well embedded in the filter membrane) was “very poorly permeable at all 3 pH levels tested” and the “direct interaction with recombinant hGrx1-roGFP2” value [2] was “No direct interaction was detected”.
